Source: ChEMBL document CHEMBL1201862, “PubChem BioAssay data set” (2004)
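Cultured in 96-well plates, cells were exposed to test compound for 48 hours across five concentrations. Abbreviation: GI50, concentration required for 50% inhibition of growth.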 Activity calls are given as the source filed them. Cut-off read from the data, not from the text of the source: active = GI50 up to about 1.1 µM and inactive = higher.

Tests used:
Assay in all cases: growth of human tumour cells (NCI), 48 h
[1] = system: M19-MEL
[2] = system: DLD-1
[3] = system: DMS-114
[4] = system: SNB-78
[5] = system: LXFL 529
[6] = system: DMS-273
[7] = system: XF498
[8] = system: HOP-18
[9] = system: RXF 631

Measured: GI50

c1ccc(CCCC2Sc3cccc4cccc(c34)S2)cc1
inactive: [1] 79.1 µM | [2] > 100 µM | [3] > 100 µM | [4] > 100 µM | [5] > 100 µM | [6] > 100 µM | [7] > 100 µM

N#C/C(=C\c1ccc(O)c(O)c1)C(N)=S [TYRPHOSTIN 47]
inactive: [8] > 100 µM | [1] > 100 µM | [2] 64.6 µM | [3] 18.2 µM | [4] > 100 µM | [5] 72.8 µM | [6] > 79.1 µM | [7] > 100 µM

Cc1ccc(-c2c(N)[n+]([O-])c3ccccc3[n+]2[O-])cc1
inactive: [8] 15.7 µM | [1] 11.7 µM | [2] 13.1 µM | [9] 1.65 µM | [4] 13 µM | [5] 5.81 µM | [6] 13.4 µM | [7] 3.71 µM

CC1OC(n2cc(I)c(=O)[nH]c2=O)C=CC1=O (stereo not drawn)
inactive: [8] 16.7 µM | [1] 16.4 µM | [2] 13.2 µM | [3] 17 µM | [4] 14.7 µM | [5] 10.8 µM | [6] 17.2 µM | [7] 19.2 µM

CCOC(=O)C(C(=O)OCC)=C1N[C@H](C(=O)OCC)CS1
inactive: [8] > 100 µM | [1] > 100 µM | [2] > 100 µM | [9] > 100 µM | [4] > 100 µM | [5] > 100 µM | [7] > 100 µM

CN(C(=N)c1ccccc1)c1ccccc1
inactive: [8] > 100 µM | [1] > 100 µM | [2] > 100 µM | [4] > 100 µM | [5] > 100 µM | [6] > 100 µM

COC(=O)C1=CC2OC13CC1CCC3(C2=O)C1(C)C (stereo not drawn)
inactive: [8] 6.46 µM | [1] 11.5 µM | [3] 7.29 µM | [9] 13.9 µM | [4] 14.4 µM | [5] 4.49 µM | [6] 11.2 µM | [7] 3.77 µM

COc1ccc2c(CN3CCCCC3CO)cc3cc(OC)c(OC)cc3c2c1 (stereo not drawn)
inactive: [8] 13.7 µM | [1] 3.3 µM | [2] 6.18 µM | [3] 3.49 µM | [4] 6.93 µM | [5] 4.9 µM | [6] 2.65 µM | [7] 5.36 µM

O=[N+]([O-])C1C2C=CC(C2)[C@H]1c1ccccc1Cl (stereo partly drawn)
inactive: [8] > 100 µM | [2] 83.6 µM | [9] 76.2 µM | [4] > 100 µM | [5] 75 µM | [6] > 100 µM | [7] > 77.1 µM

Cc1cccc(C)c1N1C(=O)C(=O)C(c2nc3ccccc3s2)/C(=N/NC(=O)NN)C1=O (stereo not drawn)
inactive: [8] > 100 µM | [1] > 100 µM | [2] > 100 µM | [3] > 100 µM | [4] > 100 µM | [5] > 100 µM | [6] > 100 µM | [7] > 100 µM

COc1cc2c(cc1OC)/C(=C\c1ccccc1N)C(=O)OC2
inactive: [8] 13.8 µM | [1] 15.2 µM | [2] 15 µM | [3] 16.3 µM | [9] 9.75 µM | [5] 4.65 µM | [6] 10.7 µM

O=C(CSc1nnc(Cc2ccccc2)o1)Nc1cccc(Cl)c1
inactive: [8] 87.1 µM | [1] > 100 µM | [2] > 100 µM | [4] > 100 µM | [5] 44.1 µM | [6] 83 µM

CC(C)C(N)=O [ISOBUTYRAMIDE]
inactive: [8] > 5000 µM | [1] > 5000 µM | [2] > 5000 µM | [3] > 5000 µM | [4] > 5000 µM | [5] > 5000 µM | [6] > 5000 µM

Cc1cc(=O)n2c3c(c4c(cc13)c(CO)cc(=O)n4C)OC2
inactive: [8] 19.5 µM | [1] 12.2 µM | [2] 15.7 µM | [3] 14.1 µM | [9] 5.6 µM | [4] 15 µM | [5] 5.07 µM | [6] 8.85 µM | [7] 10.7 µM

CCCCCCCCCCCCNC(=S)OCCCC
inactive: [8] > 100 µM | [1] 42.2 µM | [2] > 100 µM | [3] 34.8 µM | [9] > 100 µM | [4] > 100 µM | [5] > 100 µM | [6] > 100 µM | [7] > 100 µM

Nc1ccc2ncc(Nc3ccc(Cl)c(Cl)c3)nc2c1
inactive: [1] 21.7 µM | [2] 29.6 µM | [3] 13 µM | [4] 26.9 µM | [5] 29.6 µM | [6] 23.2 µM | [7] 32.2 µM

CC1(c2ccccc2)CC(c2ccccc2)=NO1 (stereo not drawn)
inactive: [8] > 100 µM | [1] > 100 µM | [2] > 100 µM | [3] > 100 µM | [4] > 100 µM | [5] > 100 µM | [6] > 100 µM

c1ccc(-c2sc(-c3ccccc3)c3c2C(c2ccccc2)c2c(-c4ccccc4)sc(-c4ccccc4)c2C3c2ccccc2)cc1 (stereo not drawn)
inactive: [1] > 100 µM | [2] > 100 µM | [3] > 100 µM | [4] > 100 µM | [5] > 100 µM | [6] > 100 µM

CCOC(=O)C1(c2ccccc2)CCC(=O)CC1
inactive: [8] > 100 µM | [1] > 100 µM | [2] > 100 µM | [3] > 100 µM | [9] > 100 µM | [4] > 100 µM | [5] > 100 µM | [6] > 100 µM

O=C(O)CCSC(=O)Nc1ccccc1Cl
inactive: [8] > 100 µM | [1] > 100 µM | [2] > 100 µM | [3] > 100 µM | [9] > 100 µM | [4] > 100 µM | [5] > 100 µM | [6] > 100 µM | [7] > 100 µM

CC(=O)c1c(O)ccc2c1CC(CC=O)O2 (stereo not drawn)
inactive: [1] 40.1 µM | [2] 32.7 µM | [3] 20.1 µM | [9] 65 µM | [4] 64.6 µM | [5] 42.9 µM | [7] > 100 µM

CC1=C(c2cc(C(=O)Nc3nccs3)nc(NC#N)n2)Sc2ccccc2N1
inactive: [8] > 100 µM | [1] > 100 µM | [2] > 100 µM | [9] > 100 µM | [5] > 100 µM | [6] > 100 µM | [7] > 100 µM

COC(=O)CC(CC(=O)C(=O)OC)C(=O)OC (stereo not drawn)
inactive: [2] > 100 µM | [4] > 100 µM | [5] > 100 µM

C[N+]1(C)C/C(=C\C=C\c2ccccc2)C(=O)/C(=C/C=C/c2ccccc2)C1
inactive: [8] > 42.2 µM | [1] 7.06 µM | [2] 16.1 µM | [3] 2.72 µM | [4] 6.12 µM | [5] 2.98 µM | [6] 1.62 µM | [7] 8.49 µM

C/C(=N\NC(=O)c1ccccc1O)c1c(O)cc(C)oc1=O
inactive: [8] 27.2 µM | [1] 83.4 µM | [2] 49.8 µM | [3] 90.6 µM | [4] > 100 µM | [5] 85.5 µM

O=C(CSc1nnc(-c2ccc(/N=C\c3ccc(Cl)cc3)cc2)o1)Nc1ccccc1Cl
inactive: [8] > 100 µM | [1] > 100 µM | [3] > 100 µM | [4] 60.8 µM | [5] > 100 µM | [6] > 100 µM | [7] > 100 µM
